Earlier results in patent EP0002485B1, “Process for the preparation of marking compositions containing tin” (HOECHST AKTIENGESELLSCHAFT, priority 1977, dated 1979).

Experiments:
[1] = time until optimum of skeletal accumulation
[2] = labelled with Tc-99m; compared with pyro- and polyphosphates

Substance | Anreicherung im Skelett erreicht das Optimum [1] | Plasmaclearance [2]
Methylendiphosphonsäure [MDP] | zwei | –
1-Hydroxyäthan-1,1-diphosphonsäure [HEDP] | – | bedeutend schnellere
